The values that follow come from patent US20040043959A1, “Combination therapies for treating methylthioadenosine phosphorylase deficient cells” (priority 2002, published 2004).

In this assay the target is T1, Human MTAP (Homo sapiens, UniProt Q13126).
T1 construct: six-histidine tag (His6) (N); made in house; host or cells: E. coli BL21 DE3
T1 sequence (Q13126 1-283): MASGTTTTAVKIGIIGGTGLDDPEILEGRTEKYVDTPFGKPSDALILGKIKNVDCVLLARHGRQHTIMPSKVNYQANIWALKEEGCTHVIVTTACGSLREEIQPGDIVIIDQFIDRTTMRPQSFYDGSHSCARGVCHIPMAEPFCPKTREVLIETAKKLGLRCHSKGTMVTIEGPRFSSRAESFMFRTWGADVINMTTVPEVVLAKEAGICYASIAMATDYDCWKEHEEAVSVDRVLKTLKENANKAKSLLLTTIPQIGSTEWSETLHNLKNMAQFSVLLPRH
The assay can be described thus: MTAP substrate assay, coupled spectrophotometric (adenine, xanthine oxidase). The class given is biochemical. As to conditions: 2 nM MTAP; for activity at 50 µM: 10 min, compound 50 uM, relative to MTA at 50 uM, read-out: MT-A—50: initial velocity as a percentage of the initial velocity with MTA as substrate; for MT-A—10: initial velocity as a percentage of the initial velocity with MTA as substrate: compound 10 uM, relative to MTA at 10 uM. An outline of the steps: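 Detection was xanthine oxidase-coupled (0.8 units/ml), reading adenine-derived absorbance at 305 nm over 10 min in potassium phosphate/DTT buffer at 37° C, with N-His6 enzyme purified from E. coli.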

Take `CCCCOC(=O)CSC[C@H]1O[C@@H](n2cnc3c(N)ncnc32)[C@H](O)[C@@H]1O` [2(G)(133), Butyl ({[(2S, 3S, 4R, 5R)-5-(6-amino-9H-purin-9-yl)-3,4-dihydroxytetra-hydrofuran-2-yl]methyl}-thio)acetate]: the activity at 50 µM came to 31.5% and the “MT-A—10: initial velocity as a percentage of the initial velocity with MTA as substrate” value was 22.5%.

With `CCCCNCCSC[C@H]1O[C@@H](n2cnc3c(N)ncnc32)[C@H](O)[C@@H]1O` [2(G)(136), (2R, 3R, 4S, 5S)-2-(6-amino-9H-purin-9-yl)-5-({[2-(butylamino)-ethyl]thio}methyl)-tetrahydrofuran-3,4-diol], the activity at 50 µM was determined as 37.5% and the “MT-A—10: initial velocity as a percentage of the initial velocity with MTA as substrate” value is recorded as 18%.

For `Cc1cc(C)c(CSC[C@H]2O[C@@H](n3cnc4c(N)ncnc43)[C@H](O)[C@@H]2O)c(C)c1` [2(G)(137), (2R, 3R, 4S, 5S)-2-(6-amino-9H-purin-9-yl)-5-{[(mesitylmethyl)thio]-methyl}tetrahydrofuran-3,4-diol], the activity at 50 µM is 2% and the “MT-A—10: initial velocity as a percentage of the initial velocity with MTA as substrate” value was determined as 3.5%.

For the compound `Nc1ncnc2c1ncn2[C@@H]1O[C@H](CSc2nc(-c3ccccc3)cs2)[C@@H](O)[C@H]1O` [2(G)(138), (2R, 3R, 4S, 5S)-2-(6-amino-9H-purin-9-yl)-5-{[(4-phenyl-1,3-thiazol-2-yl)thio]methyl}-tetrahydrofuran-3,4-diol], the activity at 50 µM is 12.5% and the “MT-A—10: initial velocity as a percentage of the initial velocity with MTA as substrate” value was found to be 9%.

Take `CCCCOC(=O)CCSC[C@H]1O[C@@H](n2cnc3c(N)ncnc32)[C@H](O)[C@@H]1O` [2(G)(139), Butyl 3-({[(2S, 3S, 4R, 5R)-5-(6-amino-9H-purin-9-yl)-dihydroxytetrahydro-furan-2-yl]methyl}thio)-propanoate]: the activity at 50 µM stood at 30% and the “MT-A—10: initial velocity as a percentage of the initial velocity with MTA as substrate” value is listed as 26.5%.

Regarding `CCOC(=O)C(C)SC[C@H]1O[C@@H](n2cnc3c(N)ncnc32)[C@H](O)[C@@H]1O` (stereo partly drawn) [2(G)(140), Ethyl 2-({[(2S, 3S, 4R, 5R)-5-(6-amino-9H-purin-9-yl)-3,4-dihydroxytetra-hydrofuran-2-yl]methyl}-thio)-propanoate], the activity at 50 µM was 7.5% and the “MT-A—10: initial velocity as a percentage of the initial velocity with MTA as substrate” value was found to be 3%.

As for `CC(O)CSC[C@H]1O[C@@H](n2cnc3c(N)ncnc32)[C@H](O)[C@@H]1O` (stereo partly drawn) [2(G)(141), (2R, 3R, 4S, 5S)-2-(6-amino-9H-purin-9-yl)-5-{[(2-hydroxypropyl)-thio]methyl}tetrahydro-furan-3,4-diol], the activity at 50 µM turned out to be 27% and the “MT-A—10: initial velocity as a percentage of the initial velocity with MTA as substrate” value stood at 10%.

As to `CCCCCCCCSC[C@H]1O[C@@H](n2cnc3c(N)ncnc32)[C@H](O)[C@@H]1O` [2(G)(142), (2R, 3R, 4S, 5S)-2-(6-amino-9H-purin-9-yl)-5-[(octylthio)methyl]tetra-hydrofuran-3,4-diol], the activity at 50 µM worked out at 58% and the “MT-A—10: initial velocity as a percentage of the initial velocity with MTA as substrate” value stood at 1.5%.

With `CC(O)C(C)SC[C@H]1O[C@@H](n2cnc3c(N)ncnc32)[C@H](O)[C@@H]1O` (stereo partly drawn) [2(G)(144), (2R, 3R, 4S, 5S)-2-(6-amino-9H-purin-9-yl)-5-{[(2-hydroxy-1-methyl-propyl)thio]methyl}tetra-hydrofuran-3,4-diol], the activity at 50 µM was 7.5% and the “MT-A—10: initial velocity as a percentage of the initial velocity with MTA as substrate” value amounted to 18%.

For `Nc1ncnc2c1ncn2[C@@H]1O[C@H](CSCc2ccc(Cl)c(Cl)c2)[C@@H](O)[C@H]1O` [2(G)(145), (2R, 3R, 4S, 5S)-2-(6-amino-9H-purin-9-yl)-5-{[(3,4-dichlorobenzyl)-thio]methyl}tetrahydro-furan-3,4-diol], the activity at 50 µM stood at 16% and the “MT-A—10: initial velocity as a percentage of the initial velocity with MTA as substrate” value amounted to 3.5%.

`CC(C)c1ccccc1SC[C@H]1O[C@@H](n2cnc3c(N)ncnc32)[C@H](O)[C@@H]1O` [2(G)(146), (2R, 3R, 4S, 5S)-2-(6-amino-9H-purin-9-yl)-5-{[(2-isopropylphenyl)-thio]methyl}tetrahydro-furan-3,4-diol]: the activity at 50 µM stood at 2% and the “MT-A—10: initial velocity as a percentage of the initial velocity with MTA as substrate” value turned out to be 28%.

Turning to `Nc1ncnc2c1ncn2[C@@H]1O[C@H](CSc2cccc(F)c2)[C@@H](O)[C@H]1O` [2(G)(147), (2R, 3R, 4S, 5S)-2-(6-amino-9H-purin-9-yl)-5-{[(3-fluorophenyl)-thio]methyl}tetrahydro-furan-3,4-diol], the activity at 50 µM was determined as 25.5% and the “MT-A—10: initial velocity as a percentage of the initial velocity with MTA as substrate” value is on record as 18.5%.

With `Cc1cc(C)cc(SC[C@H]2O[C@@H](n3cnc4c(N)ncnc43)[C@H](O)[C@@H]2O)c1` [2(G)(148), (2R, 3R, 4S, 5S)-2-(6-amino-9H-purin-9-yl)-5-{[(3,5-dimethylphenyl)-thio]methyl}tetrahydro-furan-3,4-diol], the activity at 50 µM is 15% and the “MT-A—10: initial velocity as a percentage of the initial velocity with MTA as substrate” value is on record as 2%.

As to `Cc1ccc(SC[C@H]2O[C@@H](n3cnc4c(N)ncnc43)[C@H](O)[C@@H]2O)c(C)c1` [2(G)(149), (2R, 3R, 4S, 5S)-2-(6-amino-9H-purin-9-yl)-5-{[(2,4-dimethylphenyl)-thio]methyl}tetrahydro-furan-3,4-diol], the activity at 50 µM was 2.5% and the “MT-A—10: initial velocity as a percentage of the initial velocity with MTA as substrate” value was found to be 35.5%.

Take `Cc1ccc(SC[C@H]2O[C@@H](n3cnc4c(N)ncnc43)[C@H](O)[C@@H]2O)cc1C` [2(G)(150), (2R, 3R, 4S, 5S)-2-(6-amino-9H-purin-9-yl)-5-{[(3,4-dimethylphenyl)-thio]methyl}tetrahydro-furan-3,4-diol]: the activity at 50 µM was determined as 33.5% and the “MT-A—10: initial velocity as a percentage of the initial velocity with MTA as substrate” value came out at 2%.

`Nc1ncnc2c1ncn2[C@@H]1O[C@H](CSc2cccc(Cl)c2Cl)[C@@H](O)[C@H]1O` [2(G)(151), (2R, 3R, 4S, 5S)-2-(6-amino-9H-purin-9-yl)-5-{[(2,3-dichlorophenyl)-thio]methyl}tetrahydro-furan-3,4-diol]: the activity at 50 µM was 2% and the “MT-A—10: initial velocity as a percentage of the initial velocity with MTA as substrate” value was determined as 13.5%.

For the compound `CSc1nsc(SC[C@H]2O[C@@H](n3cnc4c(N)ncnc43)[C@H](O)[C@@H]2O)n1` [2(G)(152), (2R, 3R, 4S, 5S)-2-(6-amino-9H-purin-9-yl)-5-({[3-(methylthio)-1,2,4-thiodiazol-5-yl)-thio}methyl)tetrahydro-furan-3,4-diol], the activity at 50 µM came out at 17% and the “MT-A—10: initial velocity as a percentage of the initial velocity with MTA as substrate” value was 19.5%.

As to `Nc1ncnc2c1ncn2[C@@H]1O[C@H](CSc2nc3ccc(Cl)cc3o2)[C@@H](O)[C@H]1O` [2(G)(153), (2R, 3R, 4S, 5S)-2-(6-amino-9H-purin-9-yl)-5-{[(6-chloro-1,3-benz-oxazol-2-yl)thio]methyl}tetrahydrofuran-3,4-diol], the activity at 50 µM was found to be 22.5% and the “MT-A—10: initial velocity as a percentage of the initial velocity with MTA as substrate” value worked out at 10%.

Regarding `Cc1cc(C)nc(SC[C@H]2O[C@@H](n3cnc4c(N)ncnc43)[C@H](O)[C@@H]2O)n1` [2(G)(154), (2R, 3R, 4S, 5S)-2-(6-amino-9H-purin-9-yl)-5-{[(4,6-dimethyl-pyrimidin-2-yl)thio]methyl}tetrahydrofuran-3,4-diol], the activity at 50 µM came to 26% and the “MT-A—10: initial velocity as a percentage of the initial velocity with MTA as substrate” value amounted to 39%.

`Cc1cnc(SC[C@H]2O[C@@H](n3cnc4c(N)ncnc43)[C@H](O)[C@@H]2O)nc1O` [2(G)(155), (2R, 3R, 4S, 5S)-2-(6-amino-9H-purin-9-yl)-5-{[(4-hydroxy-5-methyl-pyrimidin-2-yl)thio]-methyl}tetrahydrofuran-3,4-diol]: the activity at 50 µM came to 39% and the “MT-A—10: initial velocity as a percentage of the initial velocity with MTA as substrate” value was found to be 22.5%.

In the case of `CC(SC[C@H]1O[C@@H](n2cnc3c(N)ncnc32)[C@H](O)[C@@H]1O)c1ccccc1` (stereo partly drawn) [2(G)(156), (2R, 3R, 4S, 5S)-2-(6-amino-9H-purin-9-yl)-5-{[(1-phenylethyl)thio]-methyl}tetrahydrofuran-3,4-diol], the activity at 50 µM amounted to 33% and the “MT-A—10: initial velocity as a percentage of the initial velocity with MTA as substrate” value was 6%.

Consider `Nc1ncnc2c1ncn2[C@@H]1O[C@H](CSc2ccccc2CO)[C@@H](O)[C@H]1O` [2(G)(157), (2R, 3R, 4S, 5S)-2-(6-amino-9H-purin-9-yl)-5-({[2-(hydroxymethyl)-phenyl]thio}methyl)tetra-hydrofuran-3,4-diol], for which the activity at 50 µM came to 15.5% and the “MT-A—10: initial velocity as a percentage of the initial velocity with MTA as substrate” value is reported as 32.5%.

As to `Cc1nc(SC[C@H]2O[C@@H](n3cnc4c(N)ncnc43)[C@H](O)[C@@H]2O)nc(O)c1C` [2(G)(158), (2R, 3R, 4S, 5S)-2-(6-amino-9H-purin-9-yl)-5-{[(4-hydroxy-5,6-dimethylpyrimidin-2-yl)-thio]methyl}tetrahydro-furan-3,4-diol], the activity at 50 µM worked out at 43.5% and the “MT-A—10: initial velocity as a percentage of the initial velocity with MTA as substrate” value is recorded as 7%.

Take `NC(=O)CSC[C@H]1O[C@@H](n2cnc3c(N)ncnc32)[C@H](O)[C@@H]1O` [2(G)(159), 2-({[(2S, 3S, 4R, 5R)-5-(6-amino-9H-purin-9-yl)-3,4-dihydroxytetrahydro-furan-2-yl)methyl}thio)-acetamide]: the activity at 50 µM was 28% and the “MT-A—10: initial velocity as a percentage of the initial velocity with MTA as substrate” value was 7.5%.
